Data published in PubChem BioAssay AID200 (DTP/NCI, 2004).
Several values for one entry are separate records, joined by “and”; a condition that tells them apart may be missing. Identical values can stand only once. Toxic doses and inconclusive results are not listed. How the source made its calls: active means survival T/C of 150% or more; inactive means T/C below 125% in these data.

Tested on: B6C3F1 mice, B16 melanoma ip, median survival T/C
Experiment: NCI In Vivo Anticancer Drug Screen. Data for tumor model B16 Melanoma (intraperitoneal) in B6C3F1 mice
Conditions: endpoint: median survival time, higher = longer survival
How it was run: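 Transplantable tumor in mice; treated vs vehicle control groups; survival or tumor size measured; value = T/C ratio.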

[1] = dose: 6.25 mg/kg/injection, schedule: Q01DX009 (ip), vehicle: Klucel (hydroxypropylcellulose) (HPC)
[2] = dose: 12.5 mg/kg/injection, schedule: Q01DX009 (ip), vehicle: Klucel (hydroxypropylcellulose) (HPC)
[3] = dose: 25.0 mg/kg/injection, schedule: Q01DX009 (ip), vehicle: Klucel (hydroxypropylcellulose) (HPC)
[4] = dose: 50.0 mg/kg/injection, schedule: Q01DX009 (ip), vehicle: Klucel (hydroxypropylcellulose) (HPC)
[5] = dose: 100.0 mg/kg/injection, schedule: Q01DX009 (ip), vehicle: Klucel (hydroxypropylcellulose) (HPC)

Measured: T/C

CC(C)c1cc(C(=O)O)c(O)c(C(C)C)c1.CC(C)c1cc(C(=O)O)c(O)c(C(C)C)c1.[Cu]
inactive: dose: 1.5 mg/kg/injection, schedule: Q01DX009 (ip), vehicle: saline with Tween-80 92 % of control | dose: 3.0 mg/kg/injection, schedule: Q01DX009 (ip), vehicle: saline with Tween-80 96 % of control | dose: 6.0 mg/kg/injection, schedule: Q01DX009 (ip), vehicle: saline with Tween-80 97 % of control | dose: 12.0 mg/kg/injection, schedule: Q01DX009 (ip), vehicle: saline with Tween-80 106 % of control | dose: 12.5 mg/kg/injection, schedule: Q01DX009 (ip), vehicle: saline with Tween-80 102 % of control | dose: 24.0 mg/kg/injection, schedule: Q01DX009 (ip), vehicle: saline with Tween-80 89 % of control

NC1=NC(=O)N2CC12 (stereo not given)
inactive: dose: 12.5 mg/kg/injection, schedule: Q01DX009 (ip), vehicle: saline 105 % of control | dose: 25.0 mg/kg/injection, schedule: Q01DX009 (ip), vehicle: saline 95 % of control | dose: 50.0 mg/kg/injection, schedule: Q01DX009 (ip), vehicle: saline 95 % of control | dose: 100.0 mg/kg/injection, schedule: Q01DX009 (ip), vehicle: saline 89 % of control

O=C(O)[C@H](Cc1ccccc1)N1C(=O)c2ccccc2C1=O
inactive: dose: 50.0 mg/kg/injection, schedule: Q01DX009 (ip), vehicle: DMSO 96 % of control | dose: 100.0 mg/kg/injection, schedule: Q01DX009 (ip), vehicle: DMSO 99 % of control | dose: 200.0 mg/kg/injection, schedule: Q01DX009 (ip), vehicle: DMSO 99 % of control | dose: 800.0 mg/kg/injection, schedule: Q01DX009 (ip), vehicle: DMSO 88 % of control

COc1ccc(Cl)[n+]([O-])n1
inactive: dose: 3.12 mg/kg/injection, schedule: Q01DX009 (ip), vehicle: Klucel (hydroxypropylcellulose) (HPC) 93 % of control | [1] 88 % of control | [2] 94 % of control | [3] 99 % of control | [4] 93 % of control

N#CC(C#N)=NNc1ccc2cn[nH]c2c1
inactive: [2] 108 % of control | [3] 100 % of control | [4] 106 % of control | [5] 102 % of control

Cc1cccc(Nc2c(N)nc(N)nc2N)c1
inactive: [4] 102 % of control | dose: 75.0 mg/kg/injection, schedule: Q01DX009 (ip), vehicle: Klucel (hydroxypropylcellulose) (HPC) 99 % of control

CCOC(=O)c1c(C)c(C(=O)OCC)n(C)c1C=O
inactive: dose: 100.0 mg/kg/injection, schedule: Q01DX009 (ip), vehicle: saline with Tween-80 95 % of control | dose: 200.0 mg/kg/injection, schedule: Q01DX009 (ip), vehicle: saline with Tween-80 94 % of control | dose: 400.0 mg/kg/injection, schedule: Q01DX009 (ip), vehicle: saline with Tween-80 92 % of control

C/C=C/c1cc2n(c1)C(=O)c1cc(OC3OC(C)C(NC)C(C)(O)C3O)c(C)c(O)c1NC2O (stereo not given)
inactive: dose: 0.25 micrograms/kg/injection, schedule: Q01DX009 (ip), vehicle: saline 106 % of control | dose: 2.0 micrograms/kg/injection, schedule: Q04DX003 (ip), vehicle: DMSO 114 % of control

COc1ccc(C(Nc2ccccc2)C(=O)c2ccccc2)cc1 (stereo not given)
inactive: [1] 102 % of control | [2] 96 % of control | [3] 96 % of control

COc1cccc2c1C(=O)c1c(O)c3c(c(O)c1C2=O)C[C@@](O)(C(=O)CO)C[C@@H]3OC1CC(N)C(O)C(C)O1 (stereo not given in full)
inactive: dose: 4.0 mg/kg/injection, schedule: Q01DX001 (iv), vehicle: saline 109 % of control | dose: 18.0 mg/kg/injection, schedule: Q01DX001 (ip), vehicle: saline 103 % of control | dose: 10.0 micrograms/kg/injection, schedule: Q01DX005 (ip), vehicle: saline 100 % of control | dose: 20.0 micrograms/kg/injection, schedule: Q01DX005 (ip), vehicle: saline 116 % of control
active: dose: 0.12 mg/kg/injection, schedule: Q01DX009 (ip), vehicle: water 166 % of control | dose: 0.13 mg/kg/injection, schedule: Q01DX009 (ip), vehicle: water 195 % of control | dose: 0.25 mg/kg/injection, schedule: Q01DX009 (ip), vehicle: water 188 % of control and 212 % of control and 252 % of control | dose: 0.5 mg/kg/injection, schedule: Q01DX001 (ip), vehicle: saline 152 % of control and 159 % of control | dose: 0.5 mg/kg/injection, schedule: Q01DX009 (ip), vehicle: water 226 % of control and 247 % of control and 285 % of control | dose: 1.0 mg/kg/injection, schedule: Q01DX001 (ip), vehicle: saline 165 % of control and 193 % of control | dose: 1.0 mg/kg/injection, schedule: Q01DX009 (ip), vehicle: water 264 % of control and 285 % of control and 320 % of control | dose: 2.0 mg/kg/injection, schedule: Q01DX001 (ip), vehicle: saline 151 % of control and 192 % of control and 244 % of control | dose: 2.0 mg/kg/injection, schedule: Q01DX005 (ip), vehicle: saline 326 % of control | dose: 2.0 mg/kg/injection, schedule: Q01DX009 (ip), vehicle: water 229 % of control and 278 % of control and 285 % of control | dose: 4.5 mg/kg/injection, schedule: Q01DX001 (ip), vehicle: saline 195 % of control | dose: 9.0 mg/kg/injection, schedule: Q01DX001 (ip), vehicle: saline 174 % of control and 255 % of control | dose: 10.0 micrograms/mouse/injection, schedule: Q01DX005 (ip), vehicle: saline 220 % of control | dose: 20.0 micrograms/mouse/injection, schedule: Q01DX005 (ip), vehicle: saline 197 % of control | dose: 40.0 micrograms/mouse/injection, schedule: Q01DX005 (ip), vehicle: saline 273 % of control

Cc1ccc(N=Nc2c(O)ccc3n[nH]nc23)cc1
inactive: [3] 94 % of control | [4] 96 % of control | [5] 114 % of control

CO[C@@]12[C@@H]3N[C@@H]3CN1C1=C(C(=O)C(NCC3CCCO3)=C(C)C1=O)[C@@H]2COC(N)=O (stereo not given in full)
active: dose: 1.5 mg/kg/injection, schedule: Q04DX003 (ip), vehicle: distilled water + Tween-80 179 % of control | dose: 3.0 mg/kg/injection, schedule: Q04DX003 (ip), vehicle: distilled water + Tween-80 172 % of control and 173 % of control and 178 % of control | dose: 6.0 mg/kg/injection, schedule: Q04DX003 (ip), vehicle: distilled water + Tween-80 179 % of control and 207 % of control and 208 % of control | dose: 12.0 mg/kg/injection, schedule: Q04DX003 (ip), vehicle: distilled water + Tween-80 185 % of control and 223 % of control and 240 % of control | dose: 24.0 mg/kg/injection, schedule: Q04DX003 (ip), vehicle: distilled water + Tween-80 174 % of control and 258 % of control and 326 % of control
